Results on 66 molecules are retold here after PubChem BioAssay AID1626 (SRMLSC, 2009).

For the assay, the system named is M. tuberculosis H37Rv growth inhibition. As to the kind of experiment: M. tuberculosis H37Rv growth inhibitors, H37Rv strain (AID 1626). The note with it: for IC90: measured here: IC90 against H37Rv; for CC50: measured here: Vero cell cytotoxicity.

With `COC(=O)c1ccc(C(=O)OC)c(NC(=O)CN2CCN(c3ccccc3)CC2)c1`, the IC50 – broadly, the concentration that gives 50% inhibition – is 66.1 µM; the IC90 (as a rule, the concentration at which the effect reaches the 90% level) is over 100 µM; the CC50 (as a rule, the concentration at which the toxic effect on the cells reaches its halfway point) is over 40 µM.

For the molecule `CCOC(=O)c1cnc(-n2nc(C)cc2C)nc1Nc1ccc(OC)cc1`, the IC50 is 0.641 µM and the IC90 is 1.27 µM.

Consider `CCOC(=O)c1ccc(NS(=O)C23CC4CC(CC(C4)C2)C3)cc1` (configuration not stated), for which the IC50 is 7.62 µM and the 90% effect concentration (IC90) was over 100 µM.

With `CC1Cc2ccccc2N1C(=O)COC(=O)c1ccc(Cl)nc1` (configuration not stated), the IC50 is 10.7 µM and the IC90 was over 100 µM.

For the molecule `CCOC(=O)CN(C#N)c1nc(N(C)C)nc(N(C)C)n1`, the IC50 was 9.34 µM and the IC90 came to 11.7 µM.

Consider `Cc1cc(C)cc(N=c2c([N+](=O)[O-])nn(-c3cccc(Cl)c3)n2O)c1`, for which the IC50 was 4.89 µM, the IC90 worked out at 9.8 µM and the CC50 was over 40 µM.

On to `Cc1ccc(S(=O)(=O)NCCC(=O)Nc2ccc(C)c(Cl)c2)cc1C`, for which the IC50 was 19.8 µM, the IC90 was over 100 µM and the CC50 was over 40 µM.

As to `Cc1ccc(Cc2cnc(NC(=O)C3=NCCN3)s2)cc1`, the IC50 was 2.07 µM and the IC90 stood at 7.96 µM.

Regarding `O=c1[nH]c(=O)n(Cc2ccccc2Cl)c(O)c1/C=C1/C=CC=N1`, the IC50 was under 0.391 µM, the IC90 amounted to 3.23 µM and the CC50 was found to be 27.2 µM.

`O=C(Nc1nnc(-c2ccc3c(c2)OCCO3)o1)c1ccc(Cc2ccccc2)cc1`: the IC50 is 1.7 µM, the IC90 is over 100 µM and the CC50 worked out at 38.1 µM.

With `CN1CCN(C2=Cc3ccc(Cl)cc3Sc3ccc(F)cc32)CC1`, the IC50 is 10.9 µM, the IC90 worked out at 12.3 µM and the CC50 turned out to be 33.9 µM.

As for `CCOC(=O)c1ccc(NC(=O)CN2C(=O)C(=O)N(CC(C)C)C2=O)cc1`, the IC50 was under 0.195 µM and the IC90 is over 100 µM.

In the case of `COc1cc(CNc2ccc3c(c2)CCC3)cc(OC)c1O`, the IC50 was 46.4 µM and the IC90 was over 100 µM.

Molecule `CC(C)(C)C1CCc2c(sc(NC(=O)CSc3nnc(-c4ccccc4)o3)c2C#N)C1` (configuration not stated) gave an IC90 of over 100 µM.

For `c1ccc(N2CCN(c3nc(NCc4ccco4)c4ccccc4n3)CC2)cc1`, the IC50 is 9.66 µM, the concentration for an effect of 90% (IC90) worked out at 14.4 µM and the CC50 was over 40 µM.

Regarding `O=C(O)C1CCCCC1C(=O)Nc1ccc2c(c1)CCC2` (configuration not stated), the IC50 was 73.5 µM and the IC90 was over 100 µM.

For `COc1cc(CNCCc2c[nH]c3ccccc23)ccc1OCc1ccccc1F`, the IC50 was 14 µM, the IC90 is 21.3 µM and the CC50 was 15.1 µM.

Molecule `Cn1c(=O)[nH]c(=O)c2c1nc(N1CCCCC1)n2CCCSc1nc2ccccc2s1` returned a CC50 of over 40 µM.

`Cc1cc(C)n2c(SCc3ccc(Br)cc3)nnc2n1` came in with a CC50 of over 40 µM.

Take `O=C(COC(=O)c1ccc(Cl)s1)c1ccc[nH]1`: the IC50 is 8.14 µM and the IC90 is 16.7 µM.

As for `O=C(/C=C/c1cccc2ccccc12)c1ccncc1`, the IC50 was 8.2 µM, the IC90 amounted to 12.7 µM and the CC50 was over 40 µM.

With `O=C(Nc1nnc(-c2ccccc2)o1)c1cc(Cl)sc1Cl`, the IC50 is 2.4 µM, the IC90 is over 100 µM and the CC50 was over 40 µM.

For the molecule `Clc1cccc2c1Sc1ccccc1CC2N1CCNCC1` (configuration not stated), the IC50 is 3.12 µM, the IC90 is 6.58 µM and the CC50 was determined as 11.2 µM.

For the molecule `O=C(Nc1cccc2ccccc12)c1ccc([N+](=O)[O-])s1`, the IC50 was 51.4 µM and the IC90 is over 100 µM.

With `O=[N+]([O-])c1ccc(Sc2cccc3cccnc23)c([N+](=O)[O-])c1`, the IC50 is 32.9 µM, the IC90 was over 100 µM and the CC50 was determined as 4.55 µM.

`O=C(CN1CCC(C(=O)c2ccc3c(c2)OCCO3)CC1)NC1CCCC1` gave a CC50 of over 40 µM.

With `COC(=O)CSc1nnc(-c2ccc(OC)cc2OC)o1`, the IC50 is 1.76 µM and the IC90 turned out to be 4.54 µM.

As to `CC(C)OC(=O)c1cc(C(=O)c2cc(Cl)ccc2O)coc1=N`, the IC50 is 28.2 µM and the IC90 was over 100 µM.

For the molecule `CCCSC1=C(C#N)C(c2cccs2)C(C(=O)Nc2ccccc2)=C(C)N1` (configuration not stated), the IC50 is 7.77 µM, the IC90 was 68.2 µM and the CC50 was over 40 µM.

For `CCNc1nc(NC(C)(C)C)nc(N2CCCCC2)n1`, the IC50 was 16 µM, the concentration for an effect of 90% (IC90) was 29.5 µM and the CC50 is over 40 µM.

Turning to `O=C(CSc1nnc(CNc2cccc(Cl)c2)o1)OC1CCCCC1`, the IC50 is 0.661 µM and the IC90 is 1.4 µM.

Consider `CCc1cccc2c1NC(=O)C21N2CCCC2C(C(=O)c2ccc3ccccc3c2)C12C(=O)Nc1ccccc12` (configuration not stated), for which the IC50 is 23.8 µM, the IC90 is over 100 µM and the CC50 was over 40 µM.

In the case of `O=C(CSCc1ccc(Cl)cc1)Nc1ccc(-c2nnc(-c3ccccc3)o2)cc1`, the CC50 was 6.18 µM. That is a single-digit micromolar value.

`Cc1cc(=O)[nH]c(SCC(=O)C23CC4CC(CC(C4)C2)C3)c1C#N` registered a concentration for an effect of 90% (IC90) of over 100 µM and a CC50 of 21.2 µM.

With `O=c1oc2ccccc2nc1/C=C(\O)c1ccc(Br)cc1`, the IC50 was 3.56 µM and the IC90 is over 100 µM.

With `Cc1ccc2[nH]c3c(N4CCc5ccccc5C4)ncnc3c2c1`, the IC50 is 11.8 µM, the 90% effect concentration (IC90) is 25.8 µM and the CC50 was determined as 10.8 µM.

Turning to `COc1cc(CNCc2ccccn2)ccc1OCc1ccc(Cl)c(Cl)c1`, the IC50 was 5.63 µM, the IC90 came to 7.7 µM and the CC50 is over 40 µM.

For the molecule `CCCCc1nc2sc3c(SCCN(C)C)ncnc3c2c2c1CCC2`, the half-maximal inhibitory concentration (IC50) was 12.8 µM, the IC90 was 25.4 µM and the CC50 is over 40 µM.

With `CCCOC(=O)c1ccc(NC(=O)C(=O)NCCN(CC)CC)cc1`, the IC50 is 53.1 µM and the IC90 was over 100 µM.

With `O=C(Nc1nc2ccccc2[nH]1)C12CC3CC(CC(C3)C1)C2`, the IC50 is 2.25 µM, the IC90 amounted to 13.1 µM and the CC50 is over 40 µM.

As for `Cc1cccc(N=Nc2c(N)n[nH]c2-c2ccc(Cl)cc2)c1`, the IC50 was 59.1 µM and the IC90 is over 100 µM.

`Cc1sc(-n2c(C)cc(/C=N/n3cnnc3)c2C)c(C#N)c1C`: the CC50 is over 40 µM.

As to `Cc1ccc(Nc2cc(C)nn2-c2nc(C)cc(C)n2)cc1`, the IC50 was under 0.195 µM, the 90% effect concentration (IC90) turned out to be 56.1 µM and the CC50 stood at 13.5 µM.

Consider `Cc1cccc(N=C2NN=C(c3c(C)[nH]c4ccccc34)CS2)c1`, for which the IC50 was 10.4 µM, the IC90 stood at 16.3 µM and the CC50 was 38.6 µM.

As to `O=C(CCSc1ccc(Cl)cc1)c1cccs1`, the IC90 was over 100 µM.

For the molecule `O=C(c1nnsc1S(=O)(=O)c1ccc(Cl)cc1)N1CCOCC1`, the IC50 was 7.98 µM, the IC90 amounted to 11.6 µM and the CC50 stood at 11.3 µM.

On to `Cc1cccc(OCCCCCn2ccnc2)c1C`, for which the IC50 is 10.6 µM, the IC90 stood at 11.6 µM and the CC50 was over 40 µM.

For the molecule `O=C(CSc1nc(-c2ccccc2Cl)ns1)c1ccc(Cl)cc1`, the IC50 is 8.62 µM and the IC90 is over 100 µM.

As to `O=C(Nc1nnc(-c2ccc(F)cc2)o1)c1cc(Cl)sc1Cl`, the IC50 was under 0.195 µM, the IC90 was determined as 2.86 µM and the CC50 was 18.2 µM.

As for `COc1ccc(C2/C=C\CN(C(=O)Nc3ccc(C(F)(F)F)cc3)CC(=O)N2Cc2ccc(F)cc2)cc1` (configuration not stated), the IC50 is 5.74 µM, the IC90 was determined as 6.73 µM and the CC50 was 16.7 µM.

`O=C(OC(c1ccccc1)c1nccc2ccccc12)c1cc([N+](=O)[O-])cc([N+](=O)[O-])c1` (configuration not stated): the IC50 is 2.14 µM, the IC90 stood at 4.48 µM and the CC50 was over 40 µM.

Consider `N=c1c2c(-c3ccccc3)c(-c3ccccc3)n(Cc3ccco3)c2ncn1Cc1ccccc1`, for which the IC50 was 2.75 µM, the IC90 is 3.17 µM and the CC50 is 6.49 µM.

For the molecule `COC(=O)CSc1nc2ccc(NC(=O)c3ccccc3C(=O)N3CCOCC3)cc2s1`, the IC50 was 8.89 µM and the IC90 is over 100 µM.

Turning to `CCOC(=O)c1ccc(-n2c(CN(CC)CC)nc3ccc([N+](=O)[O-])cc3c2=O)cc1`, the IC50 is 54.1 µM and the IC90 is over 100 µM.

For the molecule `COc1cccc(C2C3=C(N=c4s/c(=C\c5cccc(O)c5)c(=O)n42)c2ccccc2CC3)c1OC` (configuration not stated), the IC50 is 8.79 µM, the IC90 was 13.9 µM and the CC50 is 23.9 µM.

Regarding `N=C1SCC(=O)N1c1ncc(Cc2cccc(Cl)c2)s1`, the IC50 is under 0.195 µM, the IC90 was 4.92 µM and the CC50 is over 40 µM.

The molecule `CCOC(=O)CSc1cccc2cccnc12` came in with a CC50 of 30.7 µM.

Consider `CCOC(=O)c1ccc(NC(=O)C2CC2)cc1`, for which the IC50 is 28.5 µM and the IC90 is over 100 µM.

With `CCOC(=O)C1(CCc2ccccc2)CCN(Cc2ccccn2)CC1`, the IC50 was 19.7 µM and the IC90 was over 100 µM.

For `O=C(Nc1nccs1)c1ccccn1`, the IC50 was 6.09 µM, the IC90 was determined as 15.7 µM and the CC50 is over 40 µM.

For the molecule `CCCOC(=O)CSc1nnc(-c2cc(OC)c(OC)c(OC)c2)o1`, the IC50 is 0.728 µM and the IC90 came out at 1.83 µM.

Take `CCOC(=O)CSc1nc(-c2ccccc2)ns1`: the IC50 was 5.59 µM and the IC90 came out at 8.55 µM.

For `Cc1ccc2nc(/C(C#N)=C\c3ccc([N+](=O)[O-])o3)[nH]c2c1`, the IC50 is under 0.195 µM, the IC90 was under 0.195 µM and the CC50 came out at 3.11 µM.

In the case of `Cc1ccc(NC2=C/C(=N\S(=O)(=O)c3cccs3)c3ccccc3C2=O)c(C)c1`, the IC50 is 3.89 µM, the IC90 came to 5.64 µM and the CC50 was 3.74 µM.

Regarding `CCOc1ccc(NC(=O)CCCc2cc(-c3ccc(OCC)cc3)on2)cc1`, the IC50 was 47.1 µM and the IC90 is over 100 µM.

For `O=C(Nc1nnc(-c2ccc(Cl)s2)o1)C1CCCCC1`, the IC50 was 3.84 µM, the IC90 was over 100 µM and the CC50 is over 40 µM.
